Measurements published in patent publication US12285425B2, “Glucocorticoid receptor modulators to treat cervical cancer” (Corcept Therapeutics, Inc., priority 2017, dated 2025).

Columns and labels:
[1] = system: human HeLa cervical cancer cells; assay: Implanted HeLa cervical cancer tumor growth in mice, CORT125134 and paclitaxel; format: in vivo
Description: Suspensions of human HeLa cervical cancer cells were injected subcutaneously into the right flank of 5-6 week old immunosuppressed female mice (BALB/c nude), five million cells per mouse. Tumors were allowed to grow until they reached a volume of 100-200 mm^3. Mice were then grouped into five groups, ten (10) per group. Group 1 was dosed with the paclitaxel vehicle (sterile saline) intravenously (i.v.) every 4 days and the CORT125134 vehicle orally (p.o.) (10% DMSO, 0.1% Tween 80 and 89.9% HPMC (0.5%), 10 ml/kg) every 4 days. Group 2 was dosed with paclitaxel (7.5 mg/kg) i.v. every 4 days. Group 3 was dosed with paclitaxel i.v. every 4 days and with CORT125134 (30 mg/kg) p.o. the day before the administration of paclitaxel and the same day as the administration of paclitaxel. Group 4 received paclitaxel (15 mg/kg) i.v. every 4 days. Group 5 received paclitaxel (15 mg/kg) i.v. every 4 days and CORT125134 (30 mg/kg) p.o. the day before and the day of paclitaxel (15 mg/kg) i.v. administration.
The longest (L) and shortest (S) diameters of the tumors were measured three times a week with electronic calipers and tumor volume was calculated using the formula for an ellipsoid sphere: S^2×L×(0.5). The tumor growth data are shown in FIG. 1, in which the mean tumor volume for each group of mice is plotted against the number of days of tumor growth since initiation of the treatment. All treatments provide benefit compared to vehicle alone.

MDA-MB-231 cells = assay: Triple negative breast cancer (TNBC) mouse xenograft model, CORT125134 with paclitaxel; format: in vivo, mice
Description: MDA-MB-231 cells (10 million cells per mouse) were injected orthotopically in the right mammary fat pad in groups of female Balb/c nude mice. When the tumors reached a volume of 100-200 mm^3, the mice were randomized into groups of 10 and treatment was initiated. Mice were treated as follows: group 1 received vehicle daily, group 2 received paclitaxel 5 mg/kg i.v. every 4 days, group 3 received paclitaxel 5 mg/kg i.v. every 4 days and CORT125134 30 mg/kg p.o. daily. Tumor volumes were measured 3 times a week in 2 dimensions using a caliper and the volume expressed in mm^3 using the formula V=0.5 a×b2 where a and b are the long and short diameters of the tumor, respectively. Dosing was continued for 28 days, but any mouse in poor condition or with a tumor exceeding 3000 mm^3 was terminated. For comparison between two groups an independent sample t-test was used; for comparison among three or more groups a one-way ANOVA was performed followed by multiple comparison procedures. A p-value <0.05 was considered to be statistically significant. The effect of CORT125134 in combination with paclitaxel in a triple negative breast cancer (TNBC) mouse xenograft model is shown in FIG. 2. Data represent mean+SEM.

SK-OV-3 cells = assay: Ovarian cancer mouse xenograft model, CORT125134 with gemcitabine/carboplatin; format: in vivo, mice
Description: CORT125134 was administered intraperitoneally (i.p.) on days 43, 44, 50 and 51, and gemcitabine/carboplatin was administered i.p. on days 44 and 51. Data represent mean values. SK-OV-3 cells (5 million cells per mouse) were injected in the right flank of female Balb/c nude mice. When tumors reached a volume of 200 mm^3 the mice were randomized into groups of 10 and treatment was initiated. Mice were treated as follows: group 1 received vehicle on dosing days 1, 2, 8 and 9, group 2 received gemcitabine (80 mg/kg i.p.) and carboplatin (15 mg/kg i.p.) on dosing days 2 and 9 and group 3 received gemcitabine/carboplatin in the same regimen as group 2, +CORT125134 (20 mg/kg i.p.) on dosing days 1, 2, 8 and 9. Tumor volumes were measured 3 times a week and tumor volumes were calculated as detailed above. Any mouse in poor condition or with a tumor exceeding 2000 mm^3 was terminated. The results were analyzed as indicated in Example 2 above.

22Rv1 cells = assay: Prostate cancer (CRPC) mouse xenograft model, CORT125134 with castration; format: in vivo; settings: CORT125134 30 mg/kg p.o. daily for 21 days
Description: 22Rv1 cells (10 million cells per mouse) were injected in the right flank of male Balb/c nude mice. When the tumors reached a volume of 100-200 mm^3 the mice were randomized into groups of 10 and then 2 of the 3 groups were castrated. Treatment was initiated the day after castration as follows: group 1 (not castrated) received vehicle, group 2 (castrated) received vehicle, and group 3 (castrated) received CORT125134 30 mg/kg orally (p.o.) daily for 21 days. Tumor volumes were measured 3 times a week as described previously. Any mouse in poor condition or with a tumor exceeding 3000 mm^3 was terminated. The results were analyzed as indicated in Example 2 above. Data represent mean+SEM.

cervical cancer = assay: Treating a patient having cervical cancer with SGRM and a chemotherapeutic agent; format: in vivo, human; settings: CORT125134 200 mg once a day for eight weeks with nab-paclitaxel 80 mg per square meter i.v. days 1, 8, 15 of 28-day cycle; one patient
Description: A patient complains of upper abdomen pain. They are experiencing loss of appetite, nausea and vomiting episodes, and significant weight loss. […] The suspected tumor is confirmed by histological analysis to be a cancerous tumor. The patient is treated with CORT125134 at a dose of 200 mg once a day for eight weeks in combination with an intravenous infusion of nab-paclitaxel at a dose of 80 mg per square meter of body-surface area as an intravenous infusion over 30 minutes on days 1, 8, and 15 of every 28-day cycle. Tumor load is monitored using enhanced MRI before, during and after the treatment. The imaging indicate that tumor size is decreasing, and the reduction is more than 50% at the end of the treatment period.

[2] = paclitaxel 5 mg/kg i.v. every 4 days + CORT125134 30 mg/kg p.o. daily
[3] = gemcitabine/carboplatin + CORT125134 20 mg/kg i.p.

Structure (SMILES): Cn1cc(S(=O)(=O)N2CCC3=Cc4c(cnn4-c4ccc(F)cc4)C[C@]3(C(=O)c3cc(C(F)(F)F)ccn3)C2)cn1 [CORT125134, (R)-(1-(4-fluorophenyl)-6-((1-methyl-1H-pyrazol-4-yl)sulfonyl)-4,4a,5,6,7,8-hexahydro-1H-pyrazolo[3,4-g]isoquinolin-4a-yl)(4-(trifluoromethyl)pyridin-2-yl)methanone]
- p, tumor growth comparison Group 3 vs Group 5 ([1]; CORT125134 30 mg/kg + paclitaxel 15 mg/kg (Group 5) vs CORT125134 30 mg/kg + paclitaxel 7.5 mg/kg (Group 3)): 0.0009
- p, tumor growth comparison Group 2 vs Group 3 ([1]; CORT125134 30 mg/kg p.o. day before and day of paclitaxel + paclitaxel 7.5 mg/kg i.v. every 4 days (Group 3) vs paclitaxel 7.5 mg/kg alone (Group 2)): 0.008
- p, tumor growth comparison Group 4 vs Group 5 ([1]; CORT125134 30 mg/kg p.o. day before and day of paclitaxel + paclitaxel 15 mg/kg i.v. every 4 days (Group 5) vs paclitaxel 15 mg/kg alone (Group 4)): <0.0001
- tumor growth, combination of paclitaxel and CORT125134 compared with paclitaxel alone ([1]; CORT125134 30 mg/kg p.o. with paclitaxel 7.5 or 15 mg/kg i.v., either dose of paclitaxel): more effective than paclitaxel alone
- p, combination compared to paclitaxel alone (MDA-MB-231 cells; [2]): < 0.05
- p, combination compared to vehicle treated mice (MDA-MB-231 cells; [2]): < 0.05
- effect on tumor growth, combination of paclitaxel and CORT125134 (MDA-MB-231 cells; paclitaxel 5 mg/kg i.v. every 4 days + CORT125134 30 mg/kg p.o. daily, 28 days): significant inhibition of tumor growth
- effect on tumor growth, combination of gemcitabine/carboplatin with CORT125134 (SK-OV-3 cells; gemcitabine 80 mg/kg + carboplatin 15 mg/kg i.p. dosing days 2, 9 + CORT125134 20 mg/kg i.p. dosing days 1, 2, 8, 9): significant inhibition of tumor growth
- p, combination compared to vehicle (SK-OV-3 cells; [3]): < 0.001
- p, combination compared with carboplatin/gemcitabine (SK-OV-3 cells; [3]): < 0.01
- effect on tumor growth, CORT125134 in castrated mice compared to mice not castrated (22Rv1 cells): inhibited tumor growth
- p, CORT125134 in castrated mice compared to mice not castrated (22Rv1 cells): < 0.0001
- p, castration and CORT125134 vs castration alone (22Rv1 cells; castrated mice): < 0.05
- tumor growth, combination of castration and CORT125134 compared with castration alone (22Rv1 cells; castrated mice): more effective than castration alone
- reduction of tumor size at the end of the treatment period (enhanced MRI) (cervical cancer): more than 50%

Structure (SMILES): CC(=O)O[C@H]1C(=O)[C@@]2(C)[C@H]([C@H](OC(=O)c3ccccc3)[C@]3(O)C[C@H](OC(=O)[C@H](O)[C@@H](NC(=O)c4ccccc4)c4ccccc4)C(C)=C1C3(C)C)[C@]1(OC(C)=O)CO[C@@H]1C[C@@H]2O [paclitaxel, reference compound]
- p, tumor growth comparison Group 1 vs Group 2 ([1]; paclitaxel 7.5 mg/kg i.v. every 4 days (Group 2) vs vehicle (Group 1)): 0.0281
- p, tumor growth comparison Group 1 vs Group 4 ([1]; paclitaxel 15 mg/kg i.v. every 4 days (Group 4) vs vehicle (Group 1)): 0.0006
- p compared with vehicle treated mice, paclitaxel alone (MDA-MB-231 cells; paclitaxel 5 mg/kg i.v. every 4 days): not significant
- effect on tumor growth, paclitaxel alone (MDA-MB-231 cells; paclitaxel 5 mg/kg i.v. every 4 days, 28 days): ineffective
